Assay results published in patent US20070004660A1, “Synergistic Modulation of Flt3 Kinase Using Alkylquinolines and Alkylquinazolines” (priority 2005, published 2007).

The compounds below were run against T1, isolated kinase domain of the human FLT3 receptor (a.a. 571-993) (Homo sapiens, UniProt P36888) (assay: FLT3 fluorescence polarization kinase assay). Conditions: 150 uM ATP; uncertainty ±10%.
T1 construct: human FLT3 receptor (a.a. 571-993)
T1 sequence (P36888 571-993): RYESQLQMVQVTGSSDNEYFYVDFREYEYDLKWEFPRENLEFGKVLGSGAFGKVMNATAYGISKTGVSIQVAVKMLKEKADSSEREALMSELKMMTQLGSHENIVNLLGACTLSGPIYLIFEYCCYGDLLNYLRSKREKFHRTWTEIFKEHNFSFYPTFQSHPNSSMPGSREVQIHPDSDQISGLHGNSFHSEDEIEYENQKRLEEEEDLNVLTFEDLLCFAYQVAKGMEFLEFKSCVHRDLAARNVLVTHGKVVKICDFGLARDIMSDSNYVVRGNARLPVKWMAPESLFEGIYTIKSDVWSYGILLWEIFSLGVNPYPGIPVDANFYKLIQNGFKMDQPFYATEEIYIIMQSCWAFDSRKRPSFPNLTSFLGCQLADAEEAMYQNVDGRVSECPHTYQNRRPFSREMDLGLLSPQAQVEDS
Assay type: biochemical
Description: The FLT3 FP assay utilizes the fluorescein-labeled phosphopeptide and the anti-phosphotyrosine antibody included in the Panvera Phospho-Tyrosine Kinase Kit (Green) supplied by Invitrogen. When FLT3 phosphorylates polyGlu4Tyr, the fluorescein-labeled phosphopeptide is displaced from the anti-phosphotyrosine antibody by the phosphorylated poly Glu4Tyr, thus decreasing the FP value. The FLT3 kinase reaction is incubated at room temperature for 30 minutes under the following conditions: 10 nM FLT3 571-993, 20 ug/mL poly Glu4Tyr, 150 uM ATP, 5 mM MgCl2, 1% compound in DMSO. The kinase reaction is stopped with the addition of EDTA. The fluorescein-labeled phosphopeptide and the anti-phosphotyrosine antibody are added and incubated for 30 minutes at room temperature.
All data points are an average of triplicate samples. Inhibition and IC50 data analysis was done with GraphPad Prism using a non-linear regression fit with a multiparamater, sigmoidal dose-response (variable slope) equation.

Row | SMILES | IC50 [nM]
1 | CC(C)Oc1ccc(NC(=O)N2CCC(c3ccnc4ccccc34)CC2)cc1 [Example 6, 4-Quinolin-4-yl-piperidine-1-carboxylic acid (4-isopropoxy-phenyl)-amide] | 84
2 | CC(C)c1ccc(NC(=O)N2CCC(c3ncnc4ccccc34)CC2)cc1 [Example 7, 4-Quinazolin-4-yl-piperidine-1-carboxylic acid (4-isopropyl-phenyl)-amide] | 55
3 | COc1cc2ncnc(C3CCN(CC(=O)Nc4ccc(C(C)C)cc4)CC3)c2cc1OC [Example 9, 2-[4-(6,7-Dimethoxy-quinazolin-4-yl)-piperidin-1-yl]-N-(4-isopropyl-phenyl)-acetamide] | 13
4 | COc1cc2ncnc(C3CCN(CC(=O)Nc4ccc(OC(C)C)cc4)CC3)c2cc1OC [Example 10, 2-[4-(6,7-Dimethoxy-quinazolin-4-yl)-piperidin-1-yl]-N-(4-isopropoxy-phenyl)-acetamide] | 42
5 | CC(C)Oc1ccc(NC(=O)N2CCC(c3ncnc4ccc(I)cc34)CC2)cc1 [Example 11, 4-(6-Iodo-quinazolin-4-yl)-piperidine-1-carboxylic acid (4-isopropoxy-phenyl)-amide] | 46
6 | CCN(CC)CC#Cc1ccc2ncnc(C3CCN(C(=O)Nc4ccc(OC(C)C)cc4)CC3)c2c1 [Example 13, 4-[6-(3-Diethylamino-prop-1-ynyl)-quinazolin-4-yl]-piperidine-1-carboxylic acid (4-isopropoxy-phenyl)-amide] | 72
7 | CC(C)Oc1ccc(NC(=O)N2CCC(c3ncnc4ccc(C#CCN5CCCCC5)cc34)CC2)cc1 [Example 14, 4-[6-(3-Piperidin-1-yl-prop-1-ynyl)-quinazolin-4-yl]-piperidine-1-carboxylic acid (4-isopropoxy-phenyl)-amide] | 53
8 | CCOc1ccc(NC(=O)N2CCC(c3ncnc4cc(OC)c(OC)cc34)CC2)cc1 [Example 44, 4-(6,7-Dimethoxy-quinazolin-4-yl)-piperidine-1-carboxylic acid (4-ethoxy-phenyl)-amide] | 150
9 | COc1cc2ncnc(C3CCN(C(=O)Nc4ccccc4)CC3)c2cc1OC [Example 45, 4-(6,7-Dimethoxy-quinazolin-4-yl)-piperidine-1-carboxylic acid phenylamide] | 3700
10 | COc1cc2ncnc(C3CCN(C(=O)Nc4ccc(Oc5ccccc5)cc4)CC3)c2cc1OC [Example 47, 4-(6,7-Dimethoxy-quinazolin-4-yl)-piperidine-1-carboxylic acid (4-phenoxy-phenyl)-amide] | 35
11 | CCC(C)c1ccc(NC(=O)N2CCC(c3ncnc4cc(OC)c(OC)cc34)CC2)cc1 (centres unmarked) [Example 52, 4-(6,7-Dimethoxy-quinazolin-4-yl)-piperidine-1-carboxylic acid (4-sec-butyl-phenyl)-amide] | 19
12 | COc1cc2ncnc(C3CCN(C(=O)Nc4ccc(OC(C)C)nc4)CC3)c2cc1OC [Example 56, 4-(6,7-Dimethoxy-quinazolin-4-yl)-piperidine-1-carboxylic acid (6-isopropoxy-pyridin-3-yl)-amide] | 30
13 | COc1cc2ncnc(C3CCN(C(=O)Nc4ccc(N5CCCC5=O)cc4)CC3)c2cc1OC [Example 57, 4-(6,7-Dimethoxy-quinazolin-4-yl)-piperidine-1-carboxylic acid [4-(2-oxo-pyrrolidin-1-yl)-phenyl]-amide] | 700
14 | COc1cc2ncnc(C3CCN(C(=O)Nc4ccc(-c5cncnc5)cc4)CC3)c2cc1OC [Example 58, 4-(6,7-Dimethoxy-quinazolin-4-yl)-piperidine-1-carboxylic acid (4-pyrimidin-5-yl-phenyl)-amide] | 2000
15 | COc1cc2ncnc(C3CCN(C(=O)Nc4ccc(C5=CCN(C(=O)OC(C)(C)C)CC5)cc4)CC3)c2cc1OC [Example 61, 4-(4-{[4-(6,7-Dimethoxy-quinazolin-4-yl)-piperidine-1-carbonyl]-amino}-phenyl)-3,6-dihydro-2H-pyridine-1-carboxylic acid tert-butyl ester] | 8500
16 | COc1cc2ncnc(C3CCN(C(=O)Nc4ccc(C5=CCNCC5)cc4)CC3)c2cc1OC [Example 62, 4-(6,7-Dimethoxy-quinazolin-4-yl)-piperidine-1-carboxylic acid [4-(1,2,3,6-tetrahydro-pyridin-4-yl)-phenyl]-amide] | > 10000
17 | COc1cc2ncnc(C3CCN(C(=O)Nc4ccc(C5CCN(C(=O)OC(C)(C)C)CC5)cc4)CC3)c2cc1OC [Example 63, 4-(4-{[4-(6,7-Dimethoxy-quinazolin-4-yl)-piperidine-1-carbonyl]-amino}-phenyl)-piperidine-1-carboxylic acid tert-butyl ester] | 2000
18 | CC(C)Oc1ccc(NC(=O)N2CCC(c3ncnc4cc(OCCCNS(C)(=O)=O)ccc34)CC2)cc1 [Example 65, 4-[7-(3-Methanesulfonylamino-propoxy)-quinazolin-4-yl]-piperidine-1-carboxylic acid (4-isopropoxy-phenyl)-amide] | 19
19 | O=C1CCCN1CCCOc1ccc2c(C3CCN(C(=O)Nc4ccc(N5CCOCC5)cc4)CC3)ncnc2c1 [Example 68, 4-{7-[3-(2-Oxo-pyrrolidin-1-yl)-propoxy]-quinazolin-4-yl}-piperidine-1-carboxylic acid (4-morpholin-4-yl-phenyl)-amide] | 37
20 | COc1cc2ncnc(C3CCN(C(=O)Nc4ccc(OC5CCCC5)nc4)CC3)c2cc1OC [Example 69, 4-(6,7-Dimethoxy-quinazolin-4-yl)-piperidine-1-carboxylic acid (6-cyclopentyloxy-pyridin-3-yl)-amide] | 76

The remaining compounds from weak to strong by IC50, led by results:

Row | IC50 [nM] | SMILES
21 | 1100 | COc1cc2ncnc(C3CCN(C(=O)Nc4ccc(C(C)O)cc4)CC3)c2cc1OC (centres unmarked) [Example 55, 4-(6,7-Dimethoxy-quinazolin-4-yl)-piperidine-1-carboxylic acid [4-(1-hydroxy-ethyl)-phenyl]-amide]
22 | 360 | COc1cc2ncnc(C3CCN(C(=O)Nc4ccc(-c5ccc(Cl)nc5)cc4)CC3)c2cc1OC [Example 60, 4-(6,7-Dimethoxy-quinazolin-4-yl)-piperidine-1-carboxylic acid [4-(6-chloro-pyridin-3-yl)-phenyl]-amide]
23 | 220 | COc1cc2ncnc(C3CCN(C(=O)Nc4ccc(-c5ccco5)cc4)CC3)c2cc1OC [Example 59, 4-(6,7-Dimethoxy-quinazolin-4-yl)-piperidine-1-carboxylic acid (4-furan-2-yl-phenyl)-amide]
24 | 200 | CC(C)Oc1ccc(NC(=O)N2CCC(c3ncnc4ccccc34)CC2)cc1 [Example 8, 4-Quinazolin-4-yl-piperidine-1-carboxylic acid (4-isopropoxy-phenyl)-amide]
25 | 170 | COc1cc2ncnc(C3CCN(C(=O)NC4CCC(C(C)(C)C)CC4)CC3)c2cc1OC (centres unmarked) [Example 54, 4-(6,7-Dimethoxy-quinazolin-4-yl)-piperidine-1-carboxylic acid (4-tert-butyl-cyclohexyl)-amide]
26 | 160 | COc1cc2ncnc(C3CCN(C(=O)Nc4ccc(OC(F)F)cc4)CC3)c2cc1OC [Example 51, 4-(6,7-Dimethoxy-quinazolin-4-yl)-piperidine-1-carboxylic acid (4-difluoromethoxy-phenyl)-amide]
27 | 32 | CC(C)Oc1ccc(NC(=O)N2CCC(c3ncnc4ccc(C#CCO)cc34)CC2)cc1 [Example 12, 4-[6-(3-Hydroxy-prop-1-ynyl)-quinazolin-4-yl]-piperidine-1-carboxylic acid (4-isopropoxy-phenyl)-amide]
28 | 24 | CCCCc1ccc(NC(=O)N2CCC(c3ncnc4cc(OC)c(OC)cc34)CC2)cc1 [Example 43, 4-(6,7-Dimethoxy-quinazolin-4-yl)-piperidine-1-carboxylic acid (4-butyl-phenyl)-amide]
29 | 18 | CS(=O)(=O)NCCCOc1ccc2c(C3CCN(C(=O)Nc4ccc(N5CCOCC5)cc4)CC3)ncnc2c1 [Example 66, 4-[7-(3-Methanesulfonylamino-propoxy)-quinazolin-4-yl]-piperidine-1-carboxylic acid (4-morpholin-4-yl-phenyl)-amide]
30 | 15 | COc1cc2ncnc(C3CCN(C(=O)Nc4ccc(C(C)(C)C)cc4)CC3)c2cc1OC [Example 53, 4-(6,7-Dimethoxy-quinazolin-4-yl)-piperidine-1-carboxylic acid (4-tert-butyl-phenyl)-amide]
31 | 9 | COc1cc2ncnc(C3CCN(C(=O)Nc4ccc(C(C)C)cc4)CC3)c2cc1OC [Example 4, 4-(6,7-Dimethoxy-quinazolin-4-yl)-piperidine-1-carboxylic acid (4-isopropyl-phenyl)-amide]
32 | 3 | CC(C)Oc1ccc(NC(=O)N2CCC(c3ncnc4cc(OCCCN5CCCC5=O)ccc34)CC2)cc1 [Example 67, 4-{7-[3-(2-Oxo-pyrrolidin-1-yl)-propoxy]-quinazolin-4-yl}-piperidine-1-carboxylic acid (4-isopropoxy-phenyl)-amide]
